The values that follow come from patent publication EP4806894A1, “TNAP INHIBITORY COMPOUND AND USE THEREOF” (Rednvia Co., Ltd., priority 2023, dated 2025).

Where a name gives a salt, the structure may show the parent alone.

One test has as its target T1, TNAP (Homo sapiens, UniProt P05186).
T1 sequence (P05186 18-502 limits assumed): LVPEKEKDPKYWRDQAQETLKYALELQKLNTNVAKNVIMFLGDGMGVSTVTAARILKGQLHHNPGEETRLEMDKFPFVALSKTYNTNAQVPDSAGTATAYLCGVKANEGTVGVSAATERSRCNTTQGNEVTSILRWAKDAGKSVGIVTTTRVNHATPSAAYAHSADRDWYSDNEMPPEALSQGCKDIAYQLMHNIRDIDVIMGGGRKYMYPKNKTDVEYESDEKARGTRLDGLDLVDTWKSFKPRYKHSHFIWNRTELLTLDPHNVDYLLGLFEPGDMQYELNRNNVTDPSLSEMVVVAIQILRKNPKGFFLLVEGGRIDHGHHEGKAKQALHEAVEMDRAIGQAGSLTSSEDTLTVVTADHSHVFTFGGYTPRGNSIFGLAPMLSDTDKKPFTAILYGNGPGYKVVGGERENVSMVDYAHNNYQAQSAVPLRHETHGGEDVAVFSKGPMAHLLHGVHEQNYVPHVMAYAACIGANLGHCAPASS
The test is described as follows: TNAP inhibitory activity, colorimetric assay (alkaline phosphatase assay kit ab83369, pNPP substrate). It is filed as biochemical. Conditions: TNAP enzyme, 2 hours at room temperature, absorbance 405 nm.

The next test deals with saos-2 cells. Nature of the test: Anticalcification efficacy in saos-2 cells (osteogenic medium, Alizarin Red staining). Conditions: Homo sapiens, 168 h, test compound 1 µM, 7 days osteogenic medium, Alizarin Red absorbance 540 nm, read-out: calcification inhibition. Type of test: cell-based. The method, boiled down: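 Saos-2 cells at 80–90% confluence induced for 7 days in osteogenic medium (DMEM, 100 nM dexamethasone, 10 mM β-glycerophosphate, 0.05 mM ascorbic acid), compound (0.5, 1, 5, 10 […]) added with each medium change. Alizarin Red staining eluted with cetylpyridinium chloride, A540 read; inhibition taken against OM-only absorbance.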

By IC50 is commonly meant the point on the concentration scale where inhibition reaches its midpoint. High values mean lower potency, low ones higher potency. The term inhibition denotes the drop in the measured response relative to a control, in per cent. On TNAP, `COc1ccc(OC)c(S(=O)(=O)Nc2cnc3c(c2)CN(C(=O)OC(C)(C)C)CC3)c1` [Example 89, tert-butyl 3-((2,5-dimethoxyphenyl)sulfonamido)-7,8-dihydro-1,6-naphthyridine-6(5H)-carboxylate] gave an IC50 of 10 to 100 nM. Also, the inhibition at 1 µM with saos-2 cells is at least 50%.

`COc1ccc(F)cc1S(=O)(=O)Nc1cnc2c(c1)CNCC2` [Example 90, 5-fluoro-2-methoxy-N-(5,6,7,8-tetrahydro-1,6-naphthyridine-3-yl)benzenesulfonamide hydrochloride] gave a concentration for half-maximal inhibition (IC50) at TNAP of 100 to 1000 nM. Moreover, in the test on saos-2 cells, the inhibition at 1 µM was 0 to 50%.

At TNAP, `O=S(=O)(Nc1cnc2c(c1)CNCC2)c1cc(F)ccc1Br` [Example 91, 5-fluoro-2-bromo-N-(5,6,7,8-tetrahydro-1,6-naphthyridine-3-yl)benzenesulfonamide hydrochloride] yielded an IC50 of at least 1000 nM. Further, in the test with saos-2 cells, the inhibition at 1 µM was under 0%.

At TNAP, `COc1ccc(Cl)cc1S(=O)(=O)Nc1cnc2c(c1)CNCC2` [Example 92, 5-chloro-2-methoxy-N-(5,6,7,8-tetrahydro-1,6-naphthyridine-3-yl)benzenesulfonamide hydrochloride] registered an IC50 of 10 to 100 nM. Further, the inhibition at 1 µM with saos-2 cells is at least 50%.

`COc1ccc(Br)cc1S(=O)(=O)Nc1cnc2c(c1)CNCC2` [Example 93, 5-bromo-2-methoxy-N-(5,6,7,8-tetrahydro-1,6-naphthyridine-3-yl)benzenesulfonamide hydrochloride] yielded an IC50 against TNAP of 10 to 100 nM. Also, in the test with saos-2 cells, the inhibition at 1 µM is at least 50%.

`COc1ccc(OC)c(S(=O)(=O)Nc2cnc3c(c2)CNCC3)c1` [Example 94, 2,5-dimethoxy-N-(5,6,7,8-tetrahydro-1,6-naphthyridine-3-yl)benzenesulfonamide hydrochloride]: the half-inhibitory concentration (IC50) on TNAP lay within 10 to 100 nM. Also, the inhibition at 1 µM in the test with saos-2 cells was at least 50%.

The compound `CCOC(=O)N1CCc2ncc(NS(=O)(=O)c3cc(F)ccc3OC)cc2C1` [Example 95, ethyl3-((5-fluoro-2-methoxyphenyl)sulfonamido)-7,8-dihydro-1,6-naphthyridine-6(5H)-carboxylate] returned an IC50 against TNAP of 100 to 1000 nM. Besides, the inhibition at 1 µM with saos-2 cells is at least 50%.

Consider `CCOC(=O)N1CCc2ncc(NS(=O)(=O)c3cc(Cl)ccc3OC)cc2C1` [Example 96, ethyl3-((5-chloro-2-methoxyphenyl)sulfonamido)-7,8-dihydro-1,6-naphthyridine-6(5H)-carboxylate], for which the IC50 against TNAP was in the range of 10 to 100 nM. Also, in the test on saos-2 cells, the inhibition at 1 µM is at least 50%.

Compound `CCOC(=O)N1CCc2ncc(NS(=O)(=O)c3cc(Br)ccc3OC)cc2C1` [Example 97, ethyl3-((5-bromo-2-methoxyphenyl)sulfonamido)-7,8-dihydro-1,6-naphthyridine-6(5H)-carboxylate] came in with an IC50 at TNAP of 100 to 1000 nM. In the test on saos-2 cells, the inhibition at 1 µM is at least 50%.

For `COc1ccc(Cl)cc1S(=O)(=O)Nc1cnc2c(c1)CN(C(=O)OCC(C)(C)C)CC2` [Example 98, neopentyl3-((5-chloro-2-methoxyphenyl)sulfonamido)-7,8-dihydro-1,6-naphthyridine-6(5H)-carboxylate], the IC50 against TNAP lay in the range of 100 to 1000 nM. For the same compound, the inhibition at 1 µM in the test with saos-2 cells was at least 50%.

In turn, `COc1ccc(Br)cc1S(=O)(=O)Nc1cnc2c(c1)CN(C(=O)OCC(C)(C)C)CC2` [Example 99, neopentyl3-((5-bromo-2-methoxyphenyl)sulfonamido)-7,8-dihydro-1,6-naphthyridine-6(5H)-carboxylate] returned an IC50 at TNAP of 100 to 1000 nM. For the same compound, the inhibition at 1 µM in the test on saos-2 cells was under 0%.

`COc1ccc(OC)c(S(=O)(=O)Nc2cnc3c(c2)CN(C(=O)OCC(C)(C)C)CC3)c1` [Example 100, neopentyl3-((5-methoxy-2-methoxyphenyl)sulfonamido)-7,8-dihydro-1,6-naphthyridine-6(5H)-carboxylate] came in with a half-inhibitory concentration (IC50) against TNAP of 100 to 1000 nM. The inhibition at 1 µM with saos-2 cells was at least 50%.

For the compound `COc1ccc(Cl)cc1S(=O)(=O)Nc1cnc2c(c1)CN(C(=O)OCCF)CC2` [Example 101, 2-fluoroethyl-3-((5-chloro-2-methoxyphenyl)sulfonamido)-7,8-dihydro-1,6-naphthyridine-6(5H)-carboxylate], the IC50 against TNAP is 10 to 100 nM. Also, the inhibition at 1 µM in the test on saos-2 cells is under 0%.

Take `COc1ccc(Br)cc1S(=O)(=O)Nc1cnc2c(c1)CN(C(=O)OCCF)CC2` [Example 102, 2-fluoroethyl3-((5-bromo-2-methoxyphenyl)sulfonamido)-7,8-dihydro-1,6-naphthyridine-6(5H)-carboxylate]: the IC50 against TNAP is 10 to 100 nM. Also, the inhibition at 1 µM in the test on saos-2 cells is at least 50%.

`COc1ccc(OC)c(S(=O)(=O)Nc2cnc3c(c2)CN(C(=O)OCCF)CC3)c1` [Example 103, 2-fluoroethyl-3-((5-methoxy-2-methoxyphenyl)sulfonamido)-7,8-dihydro-1,6-naphthyridine-6(5H)-carboxylate] had an IC50 on TNAP of 10 to 100 nM. Moreover, the inhibition at 1 µM in the test with saos-2 cells was at least 50%.

On TNAP, `COc1ccc(Cl)cc1S(=O)(=O)Nc1cnc2c(c1)CN(C(=O)NC(C)C)CC2` [Example 104, 3-((5-chloro-2-methoxyphenyl)sulfonamido)-N-isopropyl-7,8-dihydro-1,6-naphthyridine-6(5H)-carboxamide] registered an IC50 of 10 to 100 nM. In the test with saos-2 cells, the inhibition at 1 µM was at least 50%.

Turning to `COc1ccc(F)cc1S(=O)(=O)Nc1cnc2c(c1)CN(C(=O)NC(C)C)CC2` [Example 105, 3-((5-fluoro-2-methoxyphenyl)sulfonamido)-N-isopropyl-7,8-dihydro-1,6-naphthyridine-6(5H)-carboxamide], on TNAP, the IC50 fell in the range of 10 to 100 nM. The inhibition at 1 µM in the test with saos-2 cells is at least 50%.

Regarding `CCCCCNC(=O)N1CCc2ncc(NS(=O)(=O)c3cc(Cl)ccc3OC)cc2C1` [Example 106, 3-((5-chloro-2-methoxyphenyl)sulfonamido)-N-pentyl-7,8-dihydro-1,6-naphthyridine-6(5H)-carboxamide], at TNAP, the IC50 is 100 to 1000 nM. The inhibition at 1 µM in the test with saos-2 cells is at least 50%.

As for `COc1ccc(Cl)cc1S(=O)(=O)Nc1cnc2c(c1)CN(C(=O)NCC(F)F)CC2` [Example 107, 3-((5-chloro-2-methoxyphenyl)sulfonamido)-N-(2,2-difluoroethyl)-7,8-dihydro-1,6-naphthyridine-6(5H)-carboxamide], on TNAP, the IC50 was in the range of 10 to 100 nM. In addition, the inhibition at 1 µM with saos-2 cells was at least 50%.

Regarding `COc1ccc(Br)cc1S(=O)(=O)Nc1cnc2c(c1)CN(C(=O)NCC(F)F)CC2` [Example 108, 3-((5-bromo-2-methoxyphenyl)sulfonamido)-N-(2,2-difluoroethyl)-7,8-dihydro-1,6-naphthyridine-6(5H)-carboxamide], the concentration for half-maximal inhibition (IC50) at TNAP was in the range of 10 to 100 nM. Besides, the inhibition at 1 µM in the test on saos-2 cells was at least 50%.

At TNAP, `COc1ccc(Cl)cc1S(=O)(=O)Nc1cnc2c(c1)CN(C(=O)N1CCOCC1)CC2` [Example 109, 5-chloro-2-methoxy-N-(6-(morpholine-4-carbonyl)-5,6,7,8-tetrahydro-1,6-naphthyridine-3-yl)benzenesulfonamide] returned an IC50 of 10 to 100 nM. For the same compound, the inhibition at 1 µM with saos-2 cells is at least 50%.

`COc1ccc(Br)cc1S(=O)(=O)Nc1cnc2c(c1)CN(C(=O)N1CCOCC1)CC2` [Example 110, 5-bromo-2-methoxy-N-(6-(morpholine-4-carbonyl)-5,6,7,8-tetrahydro-1,6-naphthyridine-3-yl)benzenesulfonamide] yielded an IC50 against TNAP of 10 to 100 nM. The inhibition at 1 µM with saos-2 cells was at least 50%.

For `CNC(=O)N1CCc2ncc(NS(=O)(=O)c3cc(Br)ccc3OC)cc2C1` [Example 111, 3-((5-bromo-2-methoxyphenyl)sulfonamido)-N-methyl-7,8-dihydro-1,6-naphthyridine-6(5H)-carboxamide], the IC50 against TNAP lay within 10 to 100 nM. For the same compound, the inhibition at 1 µM with saos-2 cells was at least 50%.

In turn, `COc1ccc(Cl)cc1S(=O)(=O)Nc1cnc2c(c1)CN(C(C)C)CC2` [Example 112, 5-chloro-N-(6-isopropyl-5,6,7,8-tetrahydro-1,6-naphthyridine-3-yl)-2-methoxybenzenesulfonamide] gave an IC50 against TNAP of 100 to 1000 nM. In addition, the inhibition at 1 µM in the test with saos-2 cells was under 0%.

On TNAP, `COc1ccc(Br)cc1S(=O)(=O)Nc1cnc2c(c1)CN(C(C)C)CC2` [Example 113, 5-bromo-N-(6-isopropyl-5,6,7,8-tetrahydro-1,6-naphthyridine-3-yl)-2-methoxybenzenesulfonamide] yielded an IC50 of 100 to 1000 nM. The inhibition at 1 µM in the test on saos-2 cells was under 0%.

On to `COc1ccc(Cl)cc1S(=O)(=O)Nc1cnc2c(c1)CN(c1ncccn1)CC2` [Example 114, 3-5-chloro-2-methoxy-N-(6-(pyrimidine-2-yl)-5,6,7,8-tetrahydro-1,6-naphthyridine-3-yl)benzenesulfonamide], for which, on TNAP, the IC50 was 10 to 100 nM. Also, the inhibition at 1 µM in the test with saos-2 cells was at least 50%.

As for `COc1ccc(Cl)cc1S(=O)(=O)Nc1cnc2c(c1)CN(C(=O)Nc1ccccc1)CC2` [Example 115, 3-((5-chloro-2-methoxyphenyl)sulfonamido)-N-phenyl-7,8-dihydro-1,6-naphthyridine-6(5H)-carboxamide], on TNAP, the IC50 fell in the range of 10 to 100 nM. For the same compound, the inhibition at 1 µM in the test with saos-2 cells was at least 50%.
